“And” between values parts separate entries of the source, which are not always exact repeats. Equal entries are not always repeated.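 The compound was tested at five concentrations on cells cultured in 96-well plates, with a 48-hour exposure period. At the GI50, growth is halved. The concentration for full growth arrest is given as TGI.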
Tests used:
Test in all cases: NCI-60 cell line screen, 48 h
[1] = system: HS 578T breast
[2] = system: NCI-H23 lung
[3] = system: NCI-H226 lung
[4] = system: DU-145 prostate
[5] = system: T-47D breast
[6] = system: HL-60(TB) leukemia
[7] = system: SW-620 colon
[8] = system: SNB-75 CNS
[9] = system: OVCAR-3 ovarian
[10] = system: LOX IMVI melanoma

| SMILES | GI50 [1] | TGI [1] | GI50 [2] | TGI [2] | GI50 [3] | TGI [3] | GI50 [4] | TGI [4] | GI50 [5] | TGI [5] | GI50 [6] | TGI [6] | GI50 [7] | TGI [7] | GI50 [8] | TGI [8] | GI50 [9] | TGI [9] | GI50 [10] | TGI [10] |
| --- | --- | --- | --- | --- | --- | --- | --- | --- | --- | --- | --- | --- | --- | --- | --- | --- | --- | --- | --- | --- |
| Cc1ccc(F)c(NC(=O)Nc2ccc(-c3cccc4[nH]nc(N)c34)cc2)c1 | 2.5 µM and 2.91 µM | 12.6 µM and > 10 µM | 2.4 µM and 3.41 µM | 6.17 µM and > 10 µM | 5.88 µM and 6.06 µM | 20.5 µM and > 10 µM | 3.68 µM and 3.37 µM | 13.1 µM and > 10 µM | 3.62 µM and 2.89 µM | 17.3 µM and > 10 µM | 1.95 µM and 3.29 µM | 5.63 µM and > 10 µM | 2.4 µM and 2.58 µM | 6.73 µM and 9.58 µM | 4.72 µM and 3.54 µM | 15.3 µM and > 10 µM | 2.85 µM and 3.15 µM | 7.76 µM and > 10 µM | 1.8 µM and 2.03 µM | 3.62 µM and 4.97 µM |
| CC1CCCC(C(=O)CC2CC(=O)NC(=O)C2)C1=O (stereo not drawn) | – | > 100 µM | – | > 100 µM | – | > 100 µM | – | > 100 µM | – | > 100 µM | – | > 100 µM | – | > 100 µM | – | > 100 µM | – | > 100 µM | – | > 100 µM |
| COC1=CC(c2ccc[nH]2)=N/C1=C\c1[nH]c(C)c(C(=O)CCC(=O)Oc2ccc3c(c2)CCC2C3CC[C@]3(C)[C@@H](O)CC[C@@H]23)c1C (stereo partly drawn) | 3.17 µM | > 100 µM | 3.56 µM | > 100 µM | 4.77 µM | > 100 µM | 3.54 µM | > 100 µM | 2.19 µM | > 100 µM | 4.7 µM | > 100 µM | 0.816 µM | 5.14 µM | 4.56 µM | 58.4 µM | 2.96 µM | 27.9 µM | 0.797 µM | 2.57 µM |
| O=C(c1ccccc1)C(Cl)C(Cl)c1ccccc1 (stereo not drawn) | 9.28 µM | 45.3 µM | 3.27 µM | 12.8 µM | 2.17 µM | 5.35 µM | 2.89 µM | 10.2 µM | 2.74 µM | 11.3 µM | 3.04 µM | 8.58 µM | 1.41 µM | 3.36 µM | 11.2 µM | 23.3 µM | 2.03 µM | 4.57 µM | 1.43 µM | 2.82 µM |
| COC(=O)C12CCC(C)(C)CC1C1=CCC3C4(C)CC(O)C(O)C(C)(C(=O)OC)C4CCC3(C)C1(CO)CC2 (stereo not drawn) | – | 28.2 µM | – | 32.2 µM | – | 38.5 µM | – | 29.1 µM | – | 24 µM | – | > 100 µM | – | 27.5 µM | – | 25.3 µM | – | 31.5 µM | – | 28.1 µM |
| N#CC1C[C@@H]2CC3(CCC2CN1C(=O)c1ccccc1)OCCO3 (stereo partly drawn) | > 100 µM | > 100 µM | – | > 100 µM | > 100 µM | > 100 µM | > 100 µM | > 100 µM | > 100 µM | > 100 µM | – | > 100 µM | – | > 100 µM | – | > 100 µM | – | > 100 µM | – | > 100 µM |
| O=C(Cn1c(C(=O)c2ccc(Cl)cc2)nc(-c2ccc(Cl)cc2)c1-c1ccc(Cl)cc1)c1ccccc1 | > 100 µM | > 100 µM | > 100 µM | > 100 µM | > 100 µM | > 100 µM | > 100 µM | > 100 µM | > 100 µM | > 100 µM | > 100 µM | > 100 µM | > 100 µM | > 100 µM | > 100 µM | > 100 µM | > 100 µM | > 100 µM | > 100 µM | > 100 µM |
| C/C(CCC(=O)O)=N/Nc1ccc([N+](=O)[O-])cc1 | > 100 µM | > 100 µM | > 100 µM | > 100 µM | > 100 µM | > 100 µM | > 100 µM | > 100 µM | 3.66 µM | > 100 µM | 1.51 µM | > 100 µM | 2.6 µM | > 100 µM | > 100 µM | > 100 µM | 17.4 µM | > 100 µM | 1.84 µM | > 100 µM |
| O=C(CCCn1c2c(sc3ccccc32)c(=O)n2nnc(-c3ccccc3)c12)NCCc1cnc[nH]1 | 0.783 µM | 2.19 µM | 2.71 µM | 9.6 µM | 4.43 µM | 14.1 µM | 0.833 µM | 2.2 µM | 0.638 µM | 10.5 µM | 0.0724 µM | 3.21 µM | 0.0245 µM | 0.362 µM | 1.95 µM | 3.51 µM | 2.01 µM | 5.41 µM | 0.28 µM | 2.49 µM |
| C[C@@H](N)COc1ccc(-c2cnc3ccc(N[C@H](C)c4cccc(F)c4)nn23)cc1 | 1.61 µM | 3.82 µM | 2.96 µM | 13.1 µM | 1.62 µM | 7.31 µM | 3.01 µM | 11.4 µM | 1.5 µM | 3.35 µM | 1.81 µM | 3.74 µM | 1.55 µM | 3.44 µM | 5.15 µM | 20.6 µM | 2.12 µM | 4.66 µM | 1.42 µM | 2.72 µM |
| Oc1c(C(Nc2ccccn2)c2cccc(Oc3ccccc3)c2)ccc2cccnc12 (stereo not drawn) | 0.74 µM | > 100 µM | 0.839 µM | > 100 µM | 1.36 µM | 9.32 µM | 0.774 µM | 16.2 µM | 0.785 µM | 33.2 µM | 0.432 µM | 37 µM | 0.422 µM | 20.7 µM | 0.433 µM | 11.4 µM | 0.56 µM | 13.4 µM | 0.468 µM | 16.7 µM |
| CCn1c(-c2nonc2N)nc2c(C#CC(C)(C)O)ncc(OC3CCNCC3)c21 | 2.11 µM | > 25 µM | > 23.7 µM | > 25 µM | 23.3 µM | > 25 µM | 10.4 µM | > 25 µM | 1.21 µM | > 25 µM | 8.38 µM | 19 µM | 10.3 µM | > 25 µM | 1.42 µM | > 25 µM | 5.38 µM | 17.3 µM | 8.5 µM | > 25 µM |
| CN1CCN(C(=O)[C@@]2(C)CC[C@]3(C)CC[C@]4(C)C(=CC[C@@H]5[C@@]6(C)CCC(=O)NC(C)(C)[C@@H]6CC[C@]54C)[C@@H]3C2)CC1 | 2.06 µM | 6.78 µM | 2.48 µM | 8.91 µM | 4.14 µM | 21.4 µM | 3.44 µM | 12.1 µM | 1.62 µM | 4.21 µM | 1.87 µM | 3.87 µM | 1.87 µM | 3.93 µM | 1.57 µM | 3.34 µM | 2.01 µM | 4.7 µM | 1.46 µM | 2.84 µM |
| COC(=O)c1ccc2nc(-c3cc4ccccc4n3C)n(CCCCOc3cc4c(cc3OC)C(=O)N3CCC[C@H]3C=N4)c2c1 | 0.276 µM | 1.42 µM | 0.485 µM | 1.21 µM | 1.23 µM | 8.04 µM | 0.234 µM | 0.564 µM | 0.751 µM | 3.51 µM | 0.273 µM | – | 0.389 µM | 1.75 µM | 0.339 µM | 1.35 µM | 0.214 µM | 0.51 µM | 0.592 µM | 1.74 µM |
| CNS(=O)(=O)OCC1OC(n2cnc3cncnc32)C(O)C1O (stereo not drawn) | > 100 µM | > 100 µM | > 100 µM | > 100 µM | > 100 µM | > 100 µM | > 100 µM | > 100 µM | > 100 µM | > 100 µM | > 100 µM | > 100 µM | > 100 µM | > 100 µM | > 100 µM | > 100 µM | > 100 µM | > 100 µM | > 100 µM | > 100 µM |
| CS(=O)(=O)N1CCC(n2c(=O)c(Oc3ccc(F)cc3F)cc3cnc(NC4CCOCC4)nc32)CC1 | > 11.6 µM | > 25 µM | > 25 µM | > 25 µM | > 22.5 µM | > 25 µM | > 25 µM | > 25 µM | > 20.8 µM | > 25 µM | > 25 µM | > 25 µM | > 25 µM | > 25 µM | > 25 µM | > 25 µM | > 25 µM | > 25 µM | > 25 µM | > 25 µM |
| CN1CC=C(c2cc(NC(=O)Nc3ccc(Oc4ccnc(NC(=O)C5CC5)c4)c(F)c3)cc(C(F)(F)F)c2)CC1 | 0.982 µM | 3.09 µM | 0.172 µM | 0.712 µM | 1.35 µM | 4.03 µM | 0.212 µM | 1.62 µM | 1.37 µM | 3.99 µM | 0.183 µM | 0.704 µM | 0.196 µM | 0.556 µM | 1.53 µM | 2.95 µM | 0.234 µM | 4.93 µM | 0.181 µM | 0.645 µM |
| COC(=O)Oc1nn(C(=O)OC)c(=O)c2ccccc12 | – | > 100 µM | – | > 100 µM | – | > 100 µM | – | > 100 µM | – | > 100 µM | – | > 100 µM | – | > 100 µM | – | > 100 µM | – | > 100 µM | – | > 100 µM |
| CCCCCCC1N=C(N)N=C(N)N1c1cccc(Cl)c1 (stereo not drawn) | 0.871 µM | 9.22 µM | 0.496 µM | 15 µM | 1.75 µM | 24.5 µM | 0.587 µM | 18 µM | 6.19 µM | 23.1 µM | 1.14 µM | 10.7 µM | 0.188 µM | 15.9 µM | 0.347 µM | 6.75 µM | 0.863 µM | 10.5 µM | 0.0917 µM | 13.2 µM |

From PubChem BioAssay (NCI)
